Patent publication US20190350890A1, “COMPOSITION FOR PREVENTING OR TREATING HEPATITIS CONTAINING MONOACETYL DIACYLGLYCEROL COMPOUND” (ENZYCHEM LIFESCIENCES CORPORATION, priority 2016, published 2019)

Tests used:
STAT6 [1] = assay: Western blot assay, IL-4-induced STAT6 phosphorylation in Hep3B cells; assay type: cell-based; settings: for phosphorylation of STAT6, comparison of PLAG and PLG: Hep3B cells, anti-phospho-STAT6 Western blot
Method: (§1) Hep3B cells were plated in 12 well plates (2.5×10^5 cells/well) and treated with PLAG at various concentrations (0.1, 1, 10, 100 ug/mL), and after 2 hours, activated with IL-4 for 1 hour. Whole protein extracts were immunoblotted with phospho-STAT6, STAT6, phospho-JAK1 and phosphor-PKCξ/λ Abs (cell signaling).

PKCδ = assay: Western blot assay, phospho-PKC isotypes in HL-60 cells: PKCδ; assay type: cell-based; settings: IL-4 stimulation
Method: (§2) HL-60 cells were plated in 12-well plates (1×10^6/well) and treated as described above. Total protein extracts were immunoblotted with phospho-PKC homologous proteins (δ, θ, ξ/λ, α/β) (Cell Signaling) and GAPDH Abs (Santa Cruz Biotechnology Inc., CA). Detection was performed using Immobilon Western Chemiluminescent HRP Substrate (Millipore Corporation, Billerica, Mass.).

Hep3B cells = assay: WST assay, cytotoxicity in Hep3B cells; assay type: cell-based; settings: 24 hours of incubation, PLAG 1,000 ug/mL or greater
Method: (§3) FIG. 7 is a graph showing the results of WST assay of […] depending on the dose of PLAG when the composition of the present invention was administered, and FIG. 8 is a graph showing the inhibitory effect of IL-4-induced STAT6 activity and related signaling mechanism depending on the dose of PLAG when the composition of the present invention was administered. […] HepG2 and Hep3B were used as liver cells, and HL-60 was used as neutrophil cells. Cytotoxicity of EC-18 in liver cells and leukocytes was confirmed by WST assay. Survival of Hep3B and HL-60 cells was not affected during 24 hours of incubation with PLAG each having a concentration of 1,000 ug/mL or greater (see FIG. 7). Based on the results of the WST assay, 100, 10, and 1 ug/mL of PLAG were used for the cells. The activities of PKC-ξ/λ, JAK1 and STAT6 played an important role in ConA-induced hepatitis, and these kinases were increased by IL-4. […] Therefore, it can be seen that PLAG can effectively control IL-4-induced hepatitis by alleviating PKC-ξ/λ activity.

[2] = system: hepatitis induced by concanavalin A; assay: Plasma cytokine analysis (ELISA) in Con A-induced hepatitis mice; assay type: in vivo, Balb/c mice; settings: Con A 20 mg/kg BW i.v., PLAG oral 100 mg/kg BW, blood 18 hours after Con A
Method: (§4) In order to confirm the preventive and therapeutic effects of hepatitis by 1-palmitoyl-2-linoleoyl-3-acetylglycerol (EC-18 or PLAG), the experiment was performed using an attenuation model of hepatitis induced by concanavalin A (hereinafter, referred to as ConA). As an experimental model, 10-week-old Balb/c mice (Koatech, Korea) were maintained under specific pathogen free (SPF) environment and used, and PLAG and PLG (ENZYCHEM Lifesciences, Korea) were prepared before or after in vivo or in vitro treatment. In addition, Hep3B, HepG2, EL-4 and HL-60 cell lines (American Type Culture Collection, ATCC) were incubated under 5% CO2 and a temperature of 37° C. The values in the comparison between groups performed in vivo were analyzed using one analysis method of the analysis of variance (ANOVA), and the values in the comparison of two experimental groups performed in vitro were analyzed using independent student's t test. Statistical significance was assumed to be p<0.05.
(§5) Mice were randomly divided into three groups: control group, Con A-treated group, and PLAG-pretreated group. The Con A and PLAG were all dissolved in PBS (phosphate buffer saline) and used. PBS or PLAG was orally administered to the mice, and after 2 hours, 20 mg/kg BW of Con A was intravenously injected into each of the Con A-treated group and the PLAG-pretreated group. Thereafter, PLAG was orally administered to mice at a dose of 100 mg/kg BW. Here, BW means body weight.
(§6) Blood samples were obtained from cardiac punctures 18 hours after administration of Con A in the mice of Example and centrifuged at 3,000 rpm for 10 minutes. For the measurement of cytokines in liver tissue ligate liquids, the animals were sacrificed and the liver was washed with PBS. The liver was homogenized and filtered using a 70 μm mesh cell strainer (BD Falcon cell strainer, BD Biosciences, Bedford, Mass.) in PBS. The supernatant was also collected by centrifugation at a rate of 2,000 rpm for 5 minutes. The lower cell pellet was resuspended in PBS and analyzed for complete blood cell count (CBC). Plasma samples and supernatants of liver lysate were maintained at minus 20° C. until cytokines were measured. The concentrations of IL-6, IL-10, IL-4, MIP-2 and IFNγ were detected using Set ELISA.

HL-60 cells [3] = assay: Neutrophil adsorption analysis on fibronectin; assay type: cell-based; settings: 100, 10, and 1 ug/mL of PLAG; 10 ng/ml of IL-4; WST-1 assay and cell number
Text: In order to determine the effect of PLAG on neutrophil adsorption of fibronectin, 24-well tissue culture plates were coated with fibronectin as in previous studies (Wang Y H, Wang W Y, Liao J F, Chen C F, Hou Y C, Liou K T, Chou Y C, et al. Prevention of macrophage adhesion molecule-1 (Mac-1)-dependent neutrophil firm adhesion by taxifolin through impairment of protein kinase-dependent NADPH oxidase activation and antagonism of G protein-mediated calcium influx. Biochem Pharmacol 2004; 67:2251-2262.). The plates were incubated with 25 ug/ml of fibronectin at 37° C. for 2 hours. The unbounded protein was removed by washing, neutrophils were pre-treated with PLAG 2 hours before the experiment, and neutrophil activity was performed with IL-4 for 4 hours. Non-adsorbed neutrophils were eluted by aspiration and washed twice with PBS. Attached neutrophils were determined by calculating the number of cells at the bottom of each well using a homocytometer. The remaining adsorbed cells were stored in an incubator for 18 hours, at which time the cells were exposed to WST-1 reagent (Roche Applied Science) for spectrometric evaluation.

HL-60 cells [4] = assay: WST assay, cytotoxicity in HL-60 cells; assay type: cell-based; settings: 24 hours of incubation, PLAG 1,000 ug/mL or greater
Method: as §3

[5] = system: hepatitis induced by concanavalin A; assay: Hematological analysis (CBC) of whole blood and liver samples; assay type: in vivo, Balb/c mice; settings: PLAG additionally administered
Method: as §4, with “Statistical significance was assumed to be p<0.05.” left out
Whole blood and liver samples were collected from the mice of Example 1 18 hours after administration of Con A. The cleaved liver collected from the mouse was homogenized as described in Experimental Example 1. Complete blood count (CBC) analysis included whole white blood cell quantification, part of neutrophils and lymphocytes of whole white blood cells, and hematology analysis was performed using Mindray BC 5300 (Shenzhen Mindray Bio-medical Electronics, China).

PKCα/β = assay: Western blot assay, phospho-PKC isotypes in HL-60 cells: PKCα/β; assay type: cell-based; settings: IL-4 stimulation
Method: as §2

PKC-ξ/λ = assay: Western blot assay, IL-4-induced PKC phosphorylation; assay type: cell-based; settings: dose-dependent; 0.1, 1, 10, 100 ug/mL, 2 hours before IL-4 for 1 hour
Method: as §1, §2

[6] = system: hepatitis induced by concanavalin A; assay: Liver tissue cytokine analysis (ELISA, RT-PCR) in Con A-induced hepatitis mice; assay type: in vivo, Balb/c mice
Method: as §4, §5, §6
(§7) Total RNA was isolated from the liver homogenate with TRIzol reagent (Incitrogen, Carlsbad, Calif.). HL-60 cells were plated in 12-well plates (1×10^6/well) and treated in the same manner as in Experimental Example 4. cDNA was synthesized from total cellular RNA using M-MLV reverse transcriptase and oligo-dT (Promega, Madison, Wis.).
(§8) The amount of cDNA amplification of the reaction samples was confirmed by 2% agarose gel (Roche Applied Science, Salt Lake City, Utah) electrophoresis.

HL-60 cells [7] = assay: RT-PCR analysis of IL-8 and VCAM-1 expression in IL-4-stimulated HL-60 cells; assay type: cell-based, human; settings: HL-60 cells stimulated by IL-4, RT-PCR, dose-dependent
Method: as §7, §8

[8] = system: hepatitis induced by concanavalin A; assay: Histological analysis of liver (hematoxylin-eosin, anti-neutrophil antibody staining); assay type: in vivo, Balb/c mice
Method: as §4, §5
The site of liver was collected from a mouse 8 hours after administration of Con A to the mouse of Example 1. The site of liver was fixed in 10% neutral buffered formalin, embedded in paraffin and cut to a thickness of 5 um. After removing the paraffin and rehydration, the flakes were stained with hematoxylin and eosin. In addition, for identification of neutrophils, the site of liver was stained with anti-mouse neutrophil antibody. All samples were evaluated histologically under a Leica (Leica, Wetzlar, Germany) optical microscope, and digital images were taken at ×200 magnification.

STAT6 [9] = assay: Luciferase reporter gene analysis, STAT6 transcriptional activity in HepG2 and Hep3B cells; assay type: cell-based; settings: 10 and 100 ug/ml of PLAG; 10 ng/ml IL-4 for 6 hours
Method: HepG2 and Hep3B cells were transfected into reporter luciferase plasmids containing four pairs of STAT6 binding sites (p4xSTAT6-Luc2P; Addgene, Cambridge, Mass.), and the reporter vector was transfected into the Attractene reagent and cell line. For the activity of STAT6 reporter vectors, 10 ng/ml of IL-4 was treated with cells for 6 hours, and the luciferase activity was measured by a luminometer using a luciferase assay system. The luciferase activity of each sample was normalized to those corresponding to the PLAG transduced samples.

PKCθ = assay: Western blot assay, phospho-PKC isotypes in HL-60 cells: PKCθ; assay type: cell-based; settings: IL-4 stimulation
Method: as §2

[10] = ConA-administered mice, PLAG further administered, vs ConA group
[11] = RT-PCR, ConA-induced liver tissue

## CCCCC/C=C\C/C=C\CCCCCCCC(=O)OC(CO)COC(=O)CCCCCCCCCCCCCCC (stereo not drawn) [PLG, reference compound]
STAT6 [1]
  phosphorylation of STAT6, comparison of PLAG and PLG: not altered

## CCCCC/C=C\C/C=C\CCCCCCCC(=O)OC(COC(C)=O)COC(=O)CCCCCCCCCCCCCCC (racemic) [PLAG, 1-palmitoyl-2-linoleoyl-3-acetyl-rac-glycerol]
PKCδ
  relaxation of the activity of PKCδ: affects the relaxation
Hep3B cells
  survival of Hep3B cells: not affected
[2]; vs Con A group
  IL-4 in mouse plasma: decreased
  IL-6 in mouse plasma: decreased
  IL-10 in mouse plasma: decreased
  MIP-2 in mouse plasma: decreased
[2]; vs mice not treated with PLAG
  concentration of IFNγ in plasma: not significantly reduced
HL-60 cells [3]
  adsorption of HL-60 to coated fibronectin: significantly reduced
HL-60 cells [4]
  survival of HL-60 cells: not affected
[5]; CBC 18 hours after Con A
  circulating neutrophils in blood: significantly increased
[5]; CBC of liver homogenate 18 hours after Con A
  number of neutrophils present in the liver: significantly reduced
PKCα/β
  relaxation of PKCα/β activity: did not affect
PKC-ξ/λ
  phosphorylation of PKC induced by IL-4: considerably alleviated
STAT6 [1]
  phosphorylation of STAT6, comparison of PLAG and PLG: significantly reduced
STAT6 [1]; dose-dependent, 0.1, 1, 10, 100 ug/mL, 2 hours before IL-4 for 1 hour
  phosphorylation of STAT6 induced by IL-4: considerably alleviated
[6]; [10]
  expression of IL-4 (protein and mRNA) in liver tissue: significantly reduced
  expression of MIP-2 (protein and mRNA) in liver tissue: significantly reduced
[6]; [11]
  expression of CXCR4 mRNA in liver tissue: down-regulates
  expression of adsorbed molecules ICAM-1 and VCAM in liver tissue: does not affect
HL-60 cells [7]
  expression of IL-8: effectively suppressed
  expression of VCAM-1: effectively suppressed
[8]; anti-neutrophil antibody staining, liver 8 hours after Con A
  neutrophils in liver enhanced by stimulation with ConA: effectively alleviated
[8]; hematoxylin-eosin staining, PLAG 100 mg/kg, 8 hours after ConA i.v.
  pathological changes of liver (hepatocyte damage, neutrophil infiltration, necrotic foci): markedly reduced
[8]; liver 8 hours after Con A, immunohistological staining, vs ConA-treated liver tissue
  liver cell damage: hardly damaged
STAT6 [9]
  STAT6 transcriptional activity: effectively prevented
PKCθ
  relaxation of the activity of PKCθ: affects the relaxation
